Square brackets hold non-standard residues; d marks the D form. Peptide text beside a SMILES is read from it. * marks the point of attachment. Acetyl(thymin-1-yl) = Cc1cn(CC(=O)*)c(=O)[nH]c1=O; Cha = N[C@@H](CC1CCCCC1)C(=O)O
Tests used:
[1] = Turbidity / appearance of aqueous solution (photograph, transmittance at 280 nm); assay type: physicochemical; conditions: 200 μM in aqueous solution, ATP added
Method: First, we investigated the self-assembly ability and interaction between MNP and ADP or ATP. […] As can be evinced from Fig. 1b and c, the formed nanostructure consisted of approximately 500 nm-sized micellar structures according to transmission electron microscopy (TEM) and scanning electron microscopy (SEM). This is further confirmed by the turbidity of the solution which was determined by transmittance using UV-Vis spectroscopy. […] Transmission electron (TEM) microscopy images of (a) MNP/ADP complex (scale bar: 100 nm) and (b) MNP/ATP complex at 200 μM concentration in aqueous solution (scale bar: 500 nm); (c) scanning electron microscopy image of the MNP/ATP complex at 200 μM concentration in aqueous solution (scale bar: 500 nm); (d) sample turbidity measured by transmittance at 280 nm (inset: photograph) of the MNP, MNP/ADP complex and MNP/ATP complex at 200 μM concentration in aqueous solution; (e) confocal images of the MNP-NBD/ATP complex (Scale bar: 1 μm); (f) photograph of the aqueous solutions of the control molecules (AcNP and MNP2) and MNP in a complex with ATP (concentration: 200 μM). […] S3. ^† Micellar structures characterized by green fluorescence (Fig. 1e) were observed by confocal laser scanning microscopy performed on the MNP-NBD/ATP complex at 200 μM concentration in aqueous solution. […]

IMR90 cells = assay type: cell-based
Method: page 16: S7. Cell culture and MTT assay Cell culture: HeLa and IMR90 cells were purchased from American-type Culture Collection (ATCC, USA). Hela and IMR90 were cultured in Dulbecco’s Modified Eagle’s medium (DMEM) supplemented with 10% v fetal bovine serum (FBS), 100 U/mL penicillin and 100 μg/mL streptomycin. All cells were cultured at 37 °C in a […] For MTT assay, cells were seeded in a 96-well plate with the density of 5*103 cells per-well. After 24 hours seeding, the solutions of samples with a serial of concentr ations (5 concentrations and control) were added to each well. 10 μL MTT solution (5 mg/mL) was added to each well and incubated at 37°C for 2 days incubation and incubated for another 4 h, and then 100 μL of SDS-HCl solution was added to stop the reductio n reaction and dissolve the purple formazan. The absorbance of each well at 595 nm was measured by a multimode microplate reader. The cytotoxicity assay was performed three times and the average value of the three measurements was taken. ATP depletion method: Cells were pre -incubated with 10 mM sodium azide ( NaN3), 6 mM 2DG(2-deoxy-glucose) […] After 40 minutes, cells were washed with PBS and free medium. MNP/ADP complex was treated to ATP depleted HeLa cells for 48 hours to assess cytotoxicity.

| appearance of solution in the presence of ATP [1] | Structure (SMILES) | toxicity toward IMR90 cells above 25 μM (IMR90 cells) | toxicity toward IMR90 cells at 25 μM (IMR90 cells) |
| --- | --- | --- | --- |
| did not become cloudy | Cc1cn(CC(=O)N[C@H](CCCNC(=N)N)C(=O)N[C@H](CCCNC(=N)N)C(=O)N[C@@H](CC2CCCCC2)C(=O)N[C@H](CCCNC(=N)N)C(=O)N[C@@H](CC2CCCCC2)C(=O)N[C@H](CCCNC(=N)N)C(=O)N[C@@H](CC2CCCCC2)C(=O)O)c(=O)[nH]c1=O [MNP2, Thy–rrFxrFxrFx] ({Acetyl(thymin-1-yl)}-[dR][dR][Cha][dR][Cha][dR][Cha]-OH) | – | – |
| – | CC(=O)N[C@H](CCCNC(=N)N)C(=O)N[C@H](CCCNC(=N)N)C(=O)N[C@@H](CC1CCCCC1)C(=O)N[C@H](CCCNC(=N)N)C(=O)N[C@@H](CC1CCCCC1)C(=O)N[C@H](CCCNC(=N)N)C(=O)N[C@@H](CC1CCCCC1)C(=O)N[C@@H](Cc1ccccc1)C(=O)N[C@@H](Cc1ccccc1)C(=O)O [AcNP, Ac–rrFxrFxrFxFF] (Ac-[dR][dR][Cha][dR][Cha][dR][Cha]FF-OH) | less toxicity | almost no toxicity |

Reference: publication PMC9159100, “Intramitochondrial co-assembly between ATP and nucleopeptides induces cancer cell apoptosis” (Chemical Science, 2022)
